Experimental data taken from PubChem BioAssay AID1918995 (Molecular Pharmacology Branch, DTP, NCI, 2023).
Several values for one entry are separate records, joined by “and”; a condition that tells them apart may be missing. Identical values can stand only once. Blank lines part the entries; values can stand above or below the molecule they belong to.

System: 324938-238-R-J1-PDC complex spheroid growth, % test/control
Assay: Anticancer human tumor 324938-238-R-J1-PDC patient-derived bladder carcinoma cell line growth inhibition [AhR]
Conditions: for viability, T/C: stronger effect = lower value
In short: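 Complex tumor spheroids co-cultured with HUVEC and human MSC stroma; AhR antagonists tested in combination with standard-of-care and investigational agents. Top concentration at or near clinical Cmax (else 10 microM), half-log dilutions; growth expressed as percent test/control.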

[1] = curve of first compound, second compound 0.1 µM
[2] = curve of first compound, second compound 0.316 µM
[3] = curve of first compound, second compound 1 µM
[4] = curve of first compound, second compound 3.16 µM
[5] = curve of first compound, second compound 10 µM
[6] = second compound 0.1 µM, first compound 0.0316 µM
[7] = second compound 0.1 µM, first compound 0.1 µM
[8] = second compound 0.1 µM, first compound 0.316 µM
[9] = second compound 0.1 µM, first compound 1 µM
[10] = second compound 0.1 µM, first compound 3.16 µM
[11] = second compound 0.1 µM, first compound 10 µM
[12] = second compound 0.316 µM, first compound 0.0316 µM
[13] = second compound 0.316 µM, first compound 0.1 µM
[14] = second compound 0.316 µM, first compound 0.316 µM
[15] = second compound 0.316 µM, first compound 1 µM
[16] = second compound 0.316 µM, first compound 3.16 µM
[17] = second compound 0.316 µM, first compound 10 µM
[18] = second compound 1 µM, first compound 0.0316 µM
[19] = second compound 1 µM, first compound 0.1 µM
[20] = second compound 1 µM, first compound 0.316 µM
[21] = second compound 1 µM, first compound 1 µM
[22] = second compound 1 µM, first compound 3.16 µM
[23] = second compound 1 µM, first compound 10 µM
[24] = second compound 3.16 µM, first compound 0.0316 µM
[25] = second compound 3.16 µM, first compound 0.1 µM
[26] = second compound 3.16 µM, first compound 0.316 µM
[27] = second compound 3.16 µM, first compound 1 µM
[28] = second compound 3.16 µM, first compound 3.16 µM
[29] = second compound 3.16 µM, first compound 10 µM
[30] = second compound 10 µM, first compound 0.0316 µM
[31] = second compound 10 µM, first compound 0.1 µM
[32] = second compound 10 µM, first compound 0.316 µM
[33] = second compound 10 µM, first compound 1 µM
[34] = second compound 10 µM, first compound 3.16 µM
[35] = second compound 10 µM, first compound 10 µM
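Also: spheroids exposed to agents for seven days before viability read.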

IC50 [1]: > 10 µM
IC50 [2]: > 10 µM
IC50 [3]: > 10 µM
IC50 [4]: > 10 µM
IC50 [5]: < 0.0316 µM
Structure (SMILES): Nc1ccn(C2OC(CO)C(O)C2(F)F)c(=O)n1 (configuration not stated) + Cc1cncc(-c2nc(NCCc3c[nH]c4ccccc34)c3ncn(C(C)C)c3n2)c1
viability, T/C [6]: 105%
viability, T/C [7]: 81.5%
viability, T/C [8]: 88.5%
viability, T/C [9]: 51.6%
viability, T/C [10]: 83.9%
viability, T/C [11]: 84.1%
viability, T/C [12]: 79.4%
viability, T/C [13]: 61.6%
viability, T/C [14]: 79.2%
viability, T/C [15]: 87.2%
viability, T/C [16]: 93.3%
viability, T/C [17]: 111%
viability, T/C [18]: 95.1%
viability, T/C [19]: 65.9%
viability, T/C [20]: 79.8%
viability, T/C [21]: 84.1%
viability, T/C [22]: 69.6%
viability, T/C [23]: 84.5%
viability, T/C [24]: 95.2%
viability, T/C [25]: 74.3%
viability, T/C [26]: 119%
viability, T/C [27]: 84.3%
viability, T/C [28]: 120%
viability, T/C [29]: 72.5%
viability, T/C [30]: 45.5%
viability, T/C [31]: 53.7%
viability, T/C [32]: 49.7%
viability, T/C [33]: 49.3%
viability, T/C [34]: 62.2%
viability, T/C [35]: 62.7%

IC50 (curve of compound): > 10 µM
Structure (SMILES): CC1(C)CCC(CN2CCN(c3ccc(C(=O)NS(=O)(=O)c4ccc(NCC5CCOCC5)c([N+](=O)[O-])c4)c(Oc4cnc5[nH]ccc5c4)c3)CC2)=C(c2ccc(Cl)cc2)C1
viability, T/C (compound 0.0316 µM): 87.5% and 102% and 105%
viability, T/C (compound 0.1 µM): 125% and 98.4% and 101%
viability, T/C (compound 0.316 µM): 93.4% and 103% and 109%
viability, T/C (compound 1 µM): 82.8% and 94.3% and 101%
viability, T/C (compound 3.16 µM): 104% and 90.7% and 87.7%
viability, T/C (compound 10 µM): 114% and 59.1% and 52.6%

IC50 [1]: 0.0277 µM
IC50 [2]: 0.0204 µM
IC50 [3]: 0.0219 µM
IC50 [4]: 0.0142 µM
IC50 [5]: 0.0168 µM
Structure (SMILES): CC[C@@]1(O)C(=O)OCc2c1cc1n(c2=O)Cc2cc3c(CN(C)C)c(O)ccc3nc2-1 + CC(CO)NC(=O)c1cc(-c2ccc(Cl)cc2)nn(-c2cnn(C)c2)c1=O
viability, T/C (second compound 0.1 µM, first compound 0.000316 µM): 106%
viability, T/C (second compound 0.1 µM, first compound 0.001 µM): 103%
viability, T/C (second compound 0.1 µM, first compound 0.00316 µM): 89.7%
viability, T/C (second compound 0.1 µM, first compound 0.01 µM): 80.2%
viability, T/C [6]: 44.6%
viability, T/C [7]: 16.7%
viability, T/C (second compound 0.316 µM, first compound 0.000316 µM): 102%
viability, T/C (second compound 0.316 µM, first compound 0.001 µM): 106%
viability, T/C (second compound 0.316 µM, first compound 0.00316 µM): 100%
viability, T/C (second compound 0.316 µM, first compound 0.01 µM): 72.6%
viability, T/C [12]: 36.5%
viability, T/C [13]: 18.1%
viability, T/C (second compound 1 µM, first compound 0.000316 µM): 87.4%
viability, T/C (second compound 1 µM, first compound 0.001 µM): 97.9%
viability, T/C (second compound 1 µM, first compound 0.00316 µM): 89.6%
viability, T/C (second compound 1 µM, first compound 0.01 µM): 73%
viability, T/C [18]: 39.4%
viability, T/C [19]: 17.6%
viability, T/C (second compound 3.16 µM, first compound 0.000316 µM): 74%
viability, T/C (second compound 3.16 µM, first compound 0.001 µM): 85.4%
viability, T/C (second compound 3.16 µM, first compound 0.00316 µM): 76.3%
viability, T/C (second compound 3.16 µM, first compound 0.01 µM): 57.2%
viability, T/C [24]: 32.4%
viability, T/C [25]: 21%
viability, T/C (second compound 10 µM, first compound 0.000316 µM): 69.4%
viability, T/C (second compound 10 µM, first compound 0.001 µM): 69.7%
viability, T/C (second compound 10 µM, first compound 0.00316 µM): 61.4%
viability, T/C (second compound 10 µM, first compound 0.01 µM): 59.6%
viability, T/C [30]: 40.4%
viability, T/C [31]: 22.6%

IC50 [1]: 0.0762 µM
IC50 [2]: 0.0791 µM
IC50 [3]: 0.0728 µM
IC50 [4]: < 0.0316 µM
IC50 [5]: < 0.0316 µM
Structure (SMILES): COc1cc(Nc2ncc3c(n2)-c2ccc(Cl)cc2C(c2c(F)cccc2OC)=NC3)ccc1C(=O)O + CC(CO)NC(=O)c1cc(-c2ccc(Cl)cc2)nn(-c2cnn(C)c2)c1=O
viability, T/C [6]: 77%
viability, T/C [7]: 41.7%
viability, T/C [8]: 23.5%
viability, T/C [9]: 23.6%
viability, T/C [10]: 24.7%
viability, T/C [11]: 31%
viability, T/C [12]: 71.7%
viability, T/C [13]: 44.5%
viability, T/C [14]: 27.4%
viability, T/C [15]: 25.4%
viability, T/C [16]: 23.8%
viability, T/C [17]: 30.1%
viability, T/C [18]: 60.1%
viability, T/C [19]: 46.1%
viability, T/C [20]: 27.6%
viability, T/C [21]: 28.6%
viability, T/C [22]: 26.9%
viability, T/C [23]: 29.2%
viability, T/C [24]: 49.4%
viability, T/C [25]: 42.5%
viability, T/C [26]: 30%
viability, T/C [27]: 25.7%
viability, T/C [28]: 28.2%
viability, T/C [29]: 29.8%
viability, T/C [30]: 54.7%
viability, T/C [31]: 40.4%
viability, T/C [32]: 32.8%
viability, T/C [33]: 34.9%
viability, T/C [34]: 31.9%
viability, T/C [35]: 39.7%

IC50 [1]: 3.11 µM
IC50 [2]: 2.79 µM
IC50 [3]: 3.06 µM
IC50 [4]: 2.57 µM
IC50 [5]: 2.79 µM
Structure (SMILES): O=C(C=Cc1cccc(S(=O)(=O)Nc2ccccc2)c1)NO + Cc1ccccc1N=Nc1ccc(NC(=O)c2ccnn2C)c(C)c1
viability, T/C [6]: 103%
viability, T/C [7]: 91.5%
viability, T/C [8]: 98.4%
viability, T/C [9]: 65.5%
viability, T/C [10]: 53.8%
viability, T/C [11]: 33.4%
viability, T/C [12]: 98%
viability, T/C [13]: 102%
viability, T/C [14]: 81.1%
viability, T/C [15]: 69%
viability, T/C [16]: 48.1%
viability, T/C [17]: 32.5%
viability, T/C [18]: 93.3%
viability, T/C [19]: 99.1%
viability, T/C [20]: 84.4%
viability, T/C [21]: 75.8%
viability, T/C [22]: 48.2%
viability, T/C [23]: 33.2%
viability, T/C [24]: 84.1%
viability, T/C [25]: 84.6%
viability, T/C [26]: 83.5%
viability, T/C [27]: 66.3%
viability, T/C [28]: 47.2%
viability, T/C [29]: 38.6%
viability, T/C [30]: 78.4%
viability, T/C [31]: 85.2%
viability, T/C [32]: 71.3%
viability, T/C [33]: 62.1%
viability, T/C [34]: 49.6%
viability, T/C [35]: 36.3%

IC50 [1]: > 3 µM
IC50 [2]: > 3 µM
IC50 [3]: > 3 µM
IC50 [4]: > 3 µM
IC50 [5]: > 3 µM
Structure (SMILES): CCN(c1cc(-c2ccc(CN3CCOCC3)cc2)cc(C(=O)NCc2c(C)cc(C)[nH]c2=O)c1C)C1CCOCC1 + Cc1ccccc1N=Nc1ccc(NC(=O)c2ccnn2C)c(C)c1
viability, T/C (second compound 0.1 µM, first compound 0.00949 µM): 123%
viability, T/C (second compound 0.1 µM, first compound 0.03 µM): 113%
viability, T/C (second compound 0.1 µM, first compound 0.0949 µM): 111%
viability, T/C (second compound 0.1 µM, first compound 0.3 µM): 93.2%
viability, T/C (second compound 0.1 µM, first compound 0.949 µM): 96.2%
viability, T/C (second compound 0.1 µM, first compound 3 µM): 93.3%
viability, T/C (second compound 0.316 µM, first compound 0.00949 µM): 100%
viability, T/C (second compound 0.316 µM, first compound 0.03 µM): 111%
viability, T/C (second compound 0.316 µM, first compound 0.0949 µM): 106%
viability, T/C (second compound 0.316 µM, first compound 0.3 µM): 103%
viability, T/C (second compound 0.316 µM, first compound 0.949 µM): 108%
viability, T/C (second compound 0.316 µM, first compound 3 µM): 94.8%
viability, T/C (second compound 1 µM, first compound 0.00949 µM): 102%
viability, T/C (second compound 1 µM, first compound 0.03 µM): 101%
viability, T/C (second compound 1 µM, first compound 0.0949 µM): 94.9%
viability, T/C (second compound 1 µM, first compound 0.3 µM): 90%
viability, T/C (second compound 1 µM, first compound 0.949 µM): 98.7%
viability, T/C (second compound 1 µM, first compound 3 µM): 93.2%
viability, T/C (second compound 3.16 µM, first compound 0.00949 µM): 82.4%
viability, T/C (second compound 3.16 µM, first compound 0.03 µM): 100%
viability, T/C (second compound 3.16 µM, first compound 0.0949 µM): 81.9%
viability, T/C (second compound 3.16 µM, first compound 0.3 µM): 90.2%
viability, T/C (second compound 3.16 µM, first compound 0.949 µM): 91.8%
viability, T/C (second compound 3.16 µM, first compound 3 µM): 93.6%
viability, T/C (second compound 10 µM, first compound 0.00949 µM): 88.4%
viability, T/C (second compound 10 µM, first compound 0.03 µM): 89.6%
viability, T/C (second compound 10 µM, first compound 0.0949 µM): 82%
viability, T/C (second compound 10 µM, first compound 0.3 µM): 87%
viability, T/C (second compound 10 µM, first compound 0.949 µM): 77.5%
viability, T/C (second compound 10 µM, first compound 3 µM): 84.8%
